From PubChem BioAssay (NCI)
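Values below derive from 48-hour exposures of cells grown in 96-well plates, with endpoints linearly interpolated between the two concentrations bracketing the appropriate inhibition level. TGI denotes the concentration required for complete inhibition of growth.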

Key:
Experiment in all cases: inhibition of tumour cell growth, NCI panel, 48 h
SW-620 colon = tested on: SW-620 colon
SF-539 CNS = tested on: SF-539 CNS
MDA-MB-435 = tested on: MDA-MB-435
SR leukemia = tested on: SR leukemia
K-562 leukemia = tested on: K-562 leukemia
MCF7 breast = tested on: MCF7 breast
LOX IMVI melanoma = tested on: LOX IMVI melanoma
OVCAR-3 ovarian = tested on: OVCAR-3 ovarian
OVCAR-5 ovarian = tested on: OVCAR-5 ovarian
HCT-116 colon = tested on: HCT-116 colon
MDA-N = tested on: MDA-N
T-47D breast = tested on: T-47D breast
CCRF-CEM leukemia = tested on: CCRF-CEM leukemia
HOP-92 NSCLC = tested on: HOP-92 NSCLC
SK-MEL-2 melanoma = tested on: SK-MEL-2 melanoma
NCI-H522 lung = tested on: NCI-H522 lung
SK-OV-3 ovarian = tested on: SK-OV-3 ovarian
SN12C renal = tested on: SN12C renal
KM12 colon = tested on: KM12 colon
NCI/ADR-RES ovarian = tested on: NCI/ADR-RES ovarian
IGROV1 ovarian = tested on: IGROV1 ovarian
SF-295 CNS = tested on: SF-295 CNS
786-0 renal = tested on: 786-0 renal
HCT-15 colon = tested on: HCT-15 colon
M14 melanoma = tested on: M14 melanoma
UO-31 renal = tested on: UO-31 renal
DU-145 prostate = tested on: DU-145 prostate
COLO 205 colon = tested on: COLO 205 colon
UACC-62 melanoma = tested on: UACC-62 melanoma
CAKI-1 renal = tested on: CAKI-1 renal
A549 NSCLC = tested on: A549 NSCLC
HT29 colon = tested on: HT29 colon
OVCAR-8 ovarian = tested on: OVCAR-8 ovarian
RXF 393 renal = tested on: RXF 393 renal
ACHN renal = tested on: ACHN renal
SNB-19 CNS = tested on: SNB-19 CNS
NCI-H23 lung = tested on: NCI-H23 lung
SK-MEL-5 melanoma = tested on: SK-MEL-5 melanoma
UACC-257 melanoma = tested on: UACC-257 melanoma
U251 CNS = tested on: U251 CNS
HOP-62 NSCLC = tested on: HOP-62 NSCLC
MDA-MB-231 breast = tested on: MDA-MB-231 breast
NCI-H460 lung = tested on: NCI-H460 lung
HL-60(TB) leukemia = tested on: HL-60(TB) leukemia
SF-268 CNS = tested on: SF-268 CNS
NCI-H226 lung = tested on: NCI-H226 lung
RPMI-8226 leukemia = tested on: RPMI-8226 leukemia
HS 578T breast = tested on: HS 578T breast
PC-3 prostate = tested on: PC-3 prostate
MOLT-4 leukemia = tested on: MOLT-4 leukemia
TK-10 renal = tested on: TK-10 renal
A498 renal = tested on: A498 renal
SK-MEL-28 melanoma = tested on: SK-MEL-28 melanoma
EKVX NSCLC = tested on: EKVX NSCLC
OVCAR-4 ovarian = tested on: OVCAR-4 ovarian
SNB-75 CNS = tested on: SNB-75 CNS
MALME-3M melanoma = tested on: MALME-3M melanoma
HCC-2998 colon = tested on: HCC-2998 colon

Measured: TGI

COc1ccccc1-c1cc(=O)c2ccccc2n1C1CC1
16.5 µM: SF-539 CNS
12.2 µM: HCT-15 colon
6.62 µM: RXF 393 renal
34.3 µM: SNB-19 CNS
11 µM: OVCAR-3 ovarian
25.7 µM: HS 578T breast
26.6 µM: UACC-257 melanoma
15.7 µM: NCI-H460 lung
5.64 µM: RPMI-8226 leukemia
41.1 µM: SK-OV-3 ovarian
15.3 µM: 786-0 renal
45.9 µM: MOLT-4 leukemia
19 µM: UO-31 renal
19.5 µM: SN12C renal
20.5 µM: SF-268 CNS
27.8 µM: PC-3 prostate
12.5 µM: MDA-MB-435
5.78 µM: ACHN renal
11.1 µM: COLO 205 colon
14.8 µM: SK-MEL-5 melanoma
4.37 µM: HT29 colon
8.07 µM: SK-MEL-2 melanoma
56.1 µM: CCRF-CEM leukemia
> 100 µM: K-562 leukemia
15.8 µM: SW-620 colon
14.2 µM: OVCAR-5 ovarian | U251 CNS
15.4 µM: HOP-62 NSCLC
18.1 µM: OVCAR-8 ovarian
11.5 µM: UACC-62 melanoma
31.3 µM: NCI/ADR-RES ovarian
14.1 µM: CAKI-1 renal
12.8 µM: A549 NSCLC
44 µM: IGROV1 ovarian
19.8 µM: HOP-92 NSCLC
9.73 µM: T-47D breast
18.7 µM: SR leukemia | MCF7 breast
16 µM: MDA-MB-231 breast
12 µM: KM12 colon
18 µM: MDA-N
15.5 µM: LOX IMVI melanoma
15 µM: NCI-H226 lung
35.5 µM: HL-60(TB) leukemia
10.4 µM: HCT-116 colon
16.2 µM: M14 melanoma
22.8 µM: NCI-H23 lung
7.99 µM: SF-295 CNS
5.63 µM: NCI-H522 lung
14.4 µM: DU-145 prostate

CCOC(=O)Cn1nc2ccc(Nc3c(C)[n+]([O-])c4cc(F)c(OCC)cc4[n+]3[O-])cc2n1
71.8 µM: TK-10 renal
51.9 µM: RXF 393 renal
90.2 µM: ACHN renal
63.8 µM: HOP-92 NSCLC
not listed: SN12C renal | COLO 205 colon | UACC-62 melanoma | A549 NSCLC | SNB-19 CNS | SNB-75 CNS | MALME-3M melanoma | HCC-2998 colon
> 100 µM: all other assays above

CC1(C)CC(=O)c2c(nc3c(ccc4ccccc43)c2-c2ccc(NC(=O)CCCC(=O)Nc3ccc(-c4c5c(nc6c4ccc4ccccc46)CC(C)(C)CC5=O)cc3)cc2)C1
not listed: HOP-92 NSCLC | UACC-62 melanoma | NCI-H23 lung | A498 renal | OVCAR-4 ovarian | MALME-3M melanoma | HCC-2998 colon
> 100 µM: all other assays above

C=CCCC1CCCCC/C1=N\N(C)C (stereo not drawn)
not listed: RXF 393 renal | MALME-3M melanoma | HCC-2998 colon
> 100 µM: all other assays above

O=c1ccn(C2OC(COC3CCCCO3)C(OC3CCCCO3)C2OC2CCCCO2)c(=O)n1-c1ccccc1 (stereo not drawn)
not listed: UACC-62 melanoma
> 100 µM: all other assays above
